According to patent US8232271B2 (priority 2008, dated 2012):

Assays:
[1] = target: T1, HCV polymerase (NS5B570n-Con1) (Hepatitis C virus genotype 1b, UniProt Q9WMX2); test: HCV NS5B RNA polymerase activity assay; assay type: biochemical, HCV Con1 strain
T1 construct: contains a 21 amino acid deletion at the C-terminus relative to the full-length HCV polymerase; 6-histidine (N); made in house; host or cells: E. coli BL21(DE) pLysS, plasmid pET17b
Protocol: The enzymatic activity of HCV polymerase (NS5B570n-Con1) was measured as the incorporation of radiolabeled nucleotide monophosphates into acid insoluble RNA products. Unincorporated radiolabeled substrate was removed by filtration and scintillant was added to the washed and dried filter plate containing radiolabeled RNA product. The amount of RNA product generated by NS5B570-Con1 at the end of the reaction was directly proportional to the amount of light emitted by the scintillant.
The N-terminal 6-histidine tagged HCV polymerase, derived from HCV Con1 strain, genotype 1b (NS5B570n-Con1) contains a 21 amino acid deletion at the C-terminus relative to the full-length HCV polymerase and was purified from E. coli strain BL21(DE) pLysS. The construct, containing the coding sequence of HCV NS5B Con1 (GenBank accession number AJ242654) was inserted into the plasmid construct pET17b, downstream of a T7 promoter expression cassette and transformed into E. coli. A single colony was grown overnight as a starter culture and later used inoculate 10 L of LB media supplemented with 100 μg/mL ampicillin at 37° C. Protein expression was induced by the addition of 0.25 mM isopropyl-β-D-thiogalactopyranoside (IPTG) when optical density at […] of the culture was between 0.6 and 0.8 and cells were harvested after 16 to 18 h at 30° C. NS5B570n-Con1 was purified to homogeneity using a three-step protocol including subsequent column chromatography on Ni-NTA, SP-Sepharose HP and Superdex 75 resins.
Each 50 μl enzymatic reaction contained 20 nM RNA template derived from the complementary sequence of the Internal Ribosome Entry Site (cIRES), 20 nM NS5B570n-Con1 enzyme, 0.5 μCi of tritiated UTP (Perkin Elmer catalog no. TRK-412; specific activity: 30 to 60 Ci/mmol; stock solution concentration from 7.5×10^-5 M to 20.6×10^-6 M), 1 μM each ATP, CTP, and GTP, 40 mM Tris-HCl pH 8.0, 40 mM NaCl, 4 mM DTT (dithiothreitol), 4 mM MgCl2, and 5 μl of compound serial diluted in DMSO. Reaction mixtures were assembled in 96-well filter plates (cat #MADVN0B, Millipore Co.) and incubated for 2 h at 30° C. Reactions were stopped by addition of 10% final (v/v) trichloroacetic acid and incubated for 40 min at 4° C. Reactions were filtered, washed with 8 reaction volumes of 10% (v/v) trichloroacetic acetic acid, 4 reaction volumes of 70% (v/v) ethanol, air dried, and 25 μl of scintillant (Microscint 20, Perkin-Elmer) was added to each reaction well.
The amount of light emitted from the scintillant was converted to counts per minute (CPM) on a Topcount® plate reader (Perkin-Elmer, Energy Range: Low, Efficiency Mode: Normal, Count Time: 1 min, Background Subtract: none, Cross talk reduction: Off).
Data was analyzed in Excel® (Microsoft®) and ActivityBase® (Idbs®). The reaction in the absence of enzyme was used to determine the background signal, which was subtracted from the enzymatic reactions. Positive control reactions were performed in the absence of compound, from which the background corrected activity was set as 100% polymerase activity. All data was expressed as a percentage of the positive control. The compound concentration at which the enzyme-catalyzed rate of RNA synthesis was reduced by 50% (IC50) was calculated by fitting
[formula] equation (i) to the data. where “Y” corresponds to the relative enzyme activity (in %), “% Min” is the residual relative activity at saturating compound concentration, “% Max” is the relative maximum enzymatic activity, “X” corresponds to the compound concentration, and “S” is the Hill coefficient (or slope).

| SMILES | IC50 [1] | melting point |
| --- | --- | --- |
| CCC1(CC)C(=O)C=CN(Cc2cc(OC)c(C(C)(C)C)cc2-c2ccc[nH]c2=O)C1=O [Compound I-39] | 0.159 µM | 282 to 284 °C |
| CCOC(=O)c1cc(OC)c(C(C)(C)C)cc1-c1ccc[nH]c1=O [Compound I-54, 4-tert-Butyl-5-methoxy-2-(2-oxo-1,2-dihydro-pyridin-3-yl)-benzoic acid ethyl ester] | 0.039 µM | 214 to 215 °C |
| COc1cc(C(=O)N2CCC(Oc3ccccc3)CC2)c(-c2ccc[nH]c2=O)cc1C(C)(C)C [Compound I-79] | 1.32 µM | – |
| COc1cc(C(=O)O)c(-c2ccc[nH]c2=O)cc1C(C)(C)C [Compound I-4, 4-tert-Butyl-5-methoxy-2-(2-oxo-1,2-dihydro-pyridin-3-yl)-benzoic acid] | 0.027 µM | 244 to 245 °C |
| COc1cc(CNS(C)(=O)=O)c(-c2ccc(C)[nH]c2=O)cc1C(C)(C)C [Compound I-37, N-[4-tert-Butyl-5-methoxy-2-(6-methyl-2-oxo-1,2-dihydro-pyridin-3-yl)-benzyl]-methanesulfonamide] | 0.146 µM | 120 to 125 °C |
| COc1cc(CNC(=O)C2CCCC(NS(C)(=O)=O)C2)c(-c2ccc[nH]c2=O)cc1C(C)(C)C (centres unmarked) [Compound I-82] | 0.03 µM | 162 to 164 °C |
| COc1cc(C(=O)N2CCN(C(C)=O)CC2)c(-c2ccc[nH]c2=O)cc1C(C)(C)C [Compound I-46] | 0.615 µM | 206 to 208 °C |
| COc1cc(CN2CCOC2=O)c(-c2ccc[nH]c2=O)cc1C(C)(C)C [Compound I-74] | 0.056 µM | – |
| COc1cc(CN(C)C(=O)c2ccccc2)c(-c2ccc[nH]c2=O)cc1C(C)(C)C [Compound I-22] | 0.025 µM | 236.2 to 238 °C |
| COc1cc(CN(CC2CCN(C(C)=O)C2)S(C)(=O)=O)c(-c2ccc[nH]c2=O)cc1C(C)(C)C (centres unmarked) [Compound I-48, N-(1-acetyl-pyrrolidin-3-ylmethyl)-N-[4-tert-butyl-5-methoxy-2-(2-oxo-1,2-dihydro-pyridin-3-yl)-benzyl]-methanesulfonamide] | 0.084 µM | 196 to 198 °C |
| COc1cc(CNC(=O)c2cccnc2)c(-c2ccc[nH]c2=O)cc1C(C)(C)C [Compound I-49] | 0.026 µM | – |
| CC(=O)Nc1ccc(C(C)(C)C)cc1-c1ccc[nH]c1=O [Compound I-8, N-[4-tert-butyl-2-(2-oxo-1,2-dihydro-pyridin-3-yl)-phenyl]-acetamide] | 8.56 µM | 259 to 260 °C |
| COC(=O)CCc1cc(OC)c(C(C)(C)C)cc1-c1ccc[nH]c1=O [Compound I-3, 3-[4-tert-Butyl-5-methoxy-2-(2-oxo-1,2-dihydro-pyridin-3-yl)-phenyl]-propionic acid methyl ester] | 0.954 µM | – |
| COc1cc(CN(C)C(=O)c2cccc(NS(C)(=O)=O)c2)c(-c2ccc[nH]c2=O)cc1C(C)(C)C [Compound I-65, N-[4-tert-Butyl-5-methoxy-2-(2-oxo-1,2-dihydro-pyridin-3-yl)-benzyl]-3-methanesulfonylamino-N-methyl-benzamide] | 0.013 µM | 170 to 172 °C |
| COCCN(C)C(=O)c1cc(OC)c(C(C)(C)C)cc1-c1ccc[nH]c1=O [Compound I-47] | 1.51 µM | 160 to 162 °C |
| COc1cc(CNS(C)(=O)=O)c(-c2ccc[nH]c2=O)cc1C(C)(C)C [Compound I-13, N-[4-tert-Butyl-5-methoxy-2-(2-oxo-1,2-dihydro-pyridin-3-yl)-benzyl]-methane sulfonamide] | 0.064 µM | – |
| COc1cc(C#N)c(-c2ccc[nH]c2=O)cc1C(C)(C)C [Compound I-91] | 0.374 µM | 247 to 249 °C |
| COc1cc(CN(C2CCNCC2)S(C)(=O)=O)c(-c2ccc[nH]c2=O)cc1C(C)(C)C [Compound I-57] | 0.057 µM | 205 to 208 °C |

| SMILES | IC50 [1] | melting point |
| --- | --- | --- |
| COc1cc(CN2C(=O)c3ccccc3C2=O)c(-c2ccc[nH]c2=O)cc1C(C)(C)C [Compound I-33, 2-[4-tert-Butyl-5-methoxy-2-(2-oxo-1,2-dihydro-pyridin-3-yl)-benzyl]-isoindole-1,3-dione] | 0.035 µM | 277 to 280 °C |
| COc1cc(CNC(=O)c2ccc(N(S(C)(=O)=O)S(C)(=O)=O)cc2)c(-c2ccc[nH]c2=O)cc1C(C)(C)C [Compound I-44] | 0.774 µM | – |
| COc1cc(CN(C(C)=O)c2ccccc2)c(-c2ccc[nH]c2=O)cc1C(C)(C)C [Compound I-89] | 0.106 µM | – |
| COc1cc(CNC(C)=O)c(-c2ccc[nH]c2=O)cc1C(C)(C)C [Compound I-12] | 0.125 µM | – |
| COc1cc(CN2CCCC2=O)c(-c2ccc[nH]c2=O)cc1C(C)(C)C [Compound I-18, 3-[5-tert-Butyl-4-methoxy-2-(2-oxo-pyrrolidin-1-ylmethyl)-phenyl]-1H-pyridin-2-one] | 0.121 µM | – |
| COc1cc(CN(C)C(C)=O)c(-c2ccc[nH]c2=O)cc1C(C)(C)C [Compound I-14] | 0.151 µM | – |
| COc1cc(CC(N)=O)c(-c2ccc[nH]c2=O)cc1C(C)(C)C [Compound I-11, 2-[4-tert-Butyl-5-methoxy-2-(2-oxo-1,2-dihydro-pyridin-3-yl)-phenyl]-acetamide] | 0.437 µM | – |
| COc1cc(CCC(=O)O)c(-c2ccc[nH]c2=O)cc1C(C)(C)C [Compound I-1, 3-[4-tert-Butyl-5-methoxy-2-(2-oxo-1,2-dihydro-pyridin-3-yl)-phenyl]-propionic acid] | 0.273 µM | – |
| COc1cc(C(=O)NCC#N)c(-c2ccc[nH]c2=O)cc1C(C)(C)C [Compound I-85] | 0.023 µM | – |
| COc1cc(CN2C(=O)OC[C@H]2C(C)C)c(-c2ccc[nH]c2=O)cc1C(C)(C)C [Compound I-75] | 0.086 µM | – |
| CNC(=O)Cc1cc(OC)c(C(C)(C)C)cc1-c1ccc[nH]c1=O [Compound I-10, 2-[4-tert-Butyl-5-methoxy-2-(2-oxo-1,2-dihydro-pyridin-3-yl)-phenyl]-N-methyl-acetamide] | 0.7 µM | – |
| COc1cc(CNS(N)(=O)=O)c(-c2ccc[nH]c2=O)cc1C(C)(C)C [Compound I-50, N-[4-tert-Butyl-5-methoxy-2-(2-oxo-1,2-dihydro-pyridin-3-yl)-benzyl]-sulfamide] | 0.049 µM | – |
| COc1cc(CN2C(=O)OC[C@@H]2C(C)C)c(-c2ccc[nH]c2=O)cc1C(C)(C)C [Compound I-76, 3-[5-tert-Butyl-2-((S)-4-isopropyl-2-oxo-oxazolidin-3-ylmethyl)-4-methoxy-phenyl]-1H-pyridin-2-one] | 0.134 µM | – |
| COc1cc(CS(C)(=O)=O)c(-c2ccc[nH]c2=O)cc1C(C)(C)C [Compound I-15, 3-(5-tert-Butyl-2-methanesulfonylmethyl-4-methoxy-phenyl)-1H-pyridin-2-one] | 0.746 µM | – |
| COc1cc(C(=O)N2CCOC(CO)C2)c(-c2ccc[nH]c2=O)cc1C(C)(C)C (centres unmarked) [Compound I-78] | 1.41 µM | – |
| COc1cc(CC(=O)O)c(-c2ccc[nH]c2=O)cc1C(C)(C)C [Compound I-7, [4-tert-Butyl-5-methoxy-2-(2-oxo-1,2-dihydro-pyridin-3-yl)-phenyl]-acetic acid] | 0.156 µM | – |
| COc1cc(CNS(C)(=O)=O)c(-c2cc(F)c[nH]c2=O)cc1C(C)(C)C [Compound I-45] | 0.687 µM | – |
| CNC(=O)c1cc(OC)c(C(C)(C)C)cc1-c1ccc[nH]c1=O [Compound I-9, 4-tert-Butyl-5-methoxy-N-methyl-2-(2-oxo-1,2-dihydro-pyridin-3-yl)-benzamide] | 0.442 µM | – |
